Reference: ChEMBL document CHEMBL4387706, “Discovery of Novel Spiroindoline Derivatives as Selective Tankyrase Inhibitors” (J Med Chem, 2019)
Activity calls are given as the source filed them. The calls are words filed in the database; no cut-off is given here.

How the values were obtained:
[1] = target: Acetylcholinesterase (Homo sapiens) (UniProt P22303); assay: Inhibition of human recombinant full-length ACES expressed in HEK293 cells at 10 uM using acetylthiocholine iodide as substrate preincubated for 15 mins followed by substrate addition and measured after 20 mins by DTNB reagent based spectrophotometric method relative to control
Sequence of Acetylcholinesterase (Homo sapiens) (P22303 whole entry): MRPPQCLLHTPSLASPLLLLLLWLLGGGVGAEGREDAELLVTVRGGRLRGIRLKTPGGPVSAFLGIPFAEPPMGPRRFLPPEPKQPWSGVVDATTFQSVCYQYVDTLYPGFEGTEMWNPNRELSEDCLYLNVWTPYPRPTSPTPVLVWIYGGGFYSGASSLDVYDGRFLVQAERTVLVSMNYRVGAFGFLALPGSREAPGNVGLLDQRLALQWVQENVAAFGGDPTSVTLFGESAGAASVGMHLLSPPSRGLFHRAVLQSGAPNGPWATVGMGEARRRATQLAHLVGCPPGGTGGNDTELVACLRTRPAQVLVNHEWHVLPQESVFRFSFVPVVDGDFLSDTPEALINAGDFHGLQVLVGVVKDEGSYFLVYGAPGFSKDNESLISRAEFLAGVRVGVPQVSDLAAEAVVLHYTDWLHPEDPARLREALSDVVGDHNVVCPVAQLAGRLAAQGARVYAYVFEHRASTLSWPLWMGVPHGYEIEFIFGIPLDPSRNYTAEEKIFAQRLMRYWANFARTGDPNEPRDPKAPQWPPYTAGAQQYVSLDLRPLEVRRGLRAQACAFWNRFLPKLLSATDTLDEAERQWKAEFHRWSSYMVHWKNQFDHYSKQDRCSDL

[2] = Half life in ICR mouse at 50 mg/kg, ip; assay type: ADME, organism-based; conditions: in vivo
RKO = assay: Antiproliferative activity against human RKO cells assessed reduction in cell viability at 0.3 uM measured after 5 days by MTT assay; assay type: functional, cell-based
[3] = target: Cav1.2 (voltage-dependent L-type calcium channel subunit alpha-1C) (Rattus norvegicus, UniProt P22002); assay: Displacement of [3H]nitrendipine from Cav1.2 in Wistar rat cerebral cortex at 10 uM measured after 90 mins by scintillation counting method relative to control; conditions: probe [3H]nitrendipine
[4] = target: 3',5'-cyclic-AMP phosphodiesterase 4D (Homo sapiens) (UniProt Q08499); assay: Inhibition of full-length recombinant human PDE4D2 expressed in Sf9 insect cells at 10 uM using FAM-cAMP as substrate preincubated for 15 mins followed by substrate addition and measured after 15 mins by spectrofluorimetric method relative to control
Sequence of 3',5'-cyclic-AMP phosphodiesterase 4D (Homo sapiens) (Q08499 whole entry): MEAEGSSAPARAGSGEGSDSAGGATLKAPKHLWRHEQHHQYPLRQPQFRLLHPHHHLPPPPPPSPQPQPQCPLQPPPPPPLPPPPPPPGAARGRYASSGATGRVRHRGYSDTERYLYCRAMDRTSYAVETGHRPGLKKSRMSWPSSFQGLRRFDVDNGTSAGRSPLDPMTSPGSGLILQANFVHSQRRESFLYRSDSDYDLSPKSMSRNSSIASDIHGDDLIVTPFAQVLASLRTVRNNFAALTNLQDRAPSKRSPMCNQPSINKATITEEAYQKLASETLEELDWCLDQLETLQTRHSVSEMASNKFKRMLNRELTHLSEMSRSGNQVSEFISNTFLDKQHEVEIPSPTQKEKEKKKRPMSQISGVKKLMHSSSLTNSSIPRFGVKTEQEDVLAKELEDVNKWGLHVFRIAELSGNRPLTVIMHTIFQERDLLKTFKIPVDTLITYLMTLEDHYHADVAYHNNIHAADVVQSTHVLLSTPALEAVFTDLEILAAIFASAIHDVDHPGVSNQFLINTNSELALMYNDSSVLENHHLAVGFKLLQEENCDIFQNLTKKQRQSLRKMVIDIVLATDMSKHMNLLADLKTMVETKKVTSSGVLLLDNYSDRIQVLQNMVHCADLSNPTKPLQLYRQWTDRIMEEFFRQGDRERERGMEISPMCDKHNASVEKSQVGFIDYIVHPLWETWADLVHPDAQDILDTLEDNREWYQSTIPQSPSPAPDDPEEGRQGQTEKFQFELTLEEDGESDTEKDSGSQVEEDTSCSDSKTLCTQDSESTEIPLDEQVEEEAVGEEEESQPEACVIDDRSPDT

[5] = target: Cholecystokinin receptor type A (Homo sapiens) (UniProt P32238); assay: Displacement of [125I]CCK8 from full-length recombinant human CCK1 receptor expressed in human 1321N1 cells at 10 uM measured after 3 hrs by scintillation counting method relative to control; assay type: cell-based
Sequence of Cholecystokinin receptor type A (Homo sapiens) (P32238 whole entry): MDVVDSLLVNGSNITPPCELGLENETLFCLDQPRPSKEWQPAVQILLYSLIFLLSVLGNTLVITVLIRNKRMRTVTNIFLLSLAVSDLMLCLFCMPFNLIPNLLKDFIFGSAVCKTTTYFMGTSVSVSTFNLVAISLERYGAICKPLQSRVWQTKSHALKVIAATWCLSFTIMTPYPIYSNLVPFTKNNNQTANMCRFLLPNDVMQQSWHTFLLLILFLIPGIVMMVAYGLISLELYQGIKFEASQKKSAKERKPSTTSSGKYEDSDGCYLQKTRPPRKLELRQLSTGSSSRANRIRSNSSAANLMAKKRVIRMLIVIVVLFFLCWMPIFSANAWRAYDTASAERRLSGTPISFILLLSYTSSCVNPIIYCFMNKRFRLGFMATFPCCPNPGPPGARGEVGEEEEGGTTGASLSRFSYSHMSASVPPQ

hERG (KCNH2) = hERG (KCNH2) (Homo sapiens, UniProt Q12809); assay: Displacement of [3H]dofetilide from full-length recombinant human ERG receptor expressed in HEK293 cells at 10 uM measured after 60 mins by scintillation counting method relative to control; assay type: cell-based; conditions: HEK293 cells expressing recombinant human ERG, probe [3H]dofetilide
Sequence of hERG (KCNH2) (Q12809 whole entry): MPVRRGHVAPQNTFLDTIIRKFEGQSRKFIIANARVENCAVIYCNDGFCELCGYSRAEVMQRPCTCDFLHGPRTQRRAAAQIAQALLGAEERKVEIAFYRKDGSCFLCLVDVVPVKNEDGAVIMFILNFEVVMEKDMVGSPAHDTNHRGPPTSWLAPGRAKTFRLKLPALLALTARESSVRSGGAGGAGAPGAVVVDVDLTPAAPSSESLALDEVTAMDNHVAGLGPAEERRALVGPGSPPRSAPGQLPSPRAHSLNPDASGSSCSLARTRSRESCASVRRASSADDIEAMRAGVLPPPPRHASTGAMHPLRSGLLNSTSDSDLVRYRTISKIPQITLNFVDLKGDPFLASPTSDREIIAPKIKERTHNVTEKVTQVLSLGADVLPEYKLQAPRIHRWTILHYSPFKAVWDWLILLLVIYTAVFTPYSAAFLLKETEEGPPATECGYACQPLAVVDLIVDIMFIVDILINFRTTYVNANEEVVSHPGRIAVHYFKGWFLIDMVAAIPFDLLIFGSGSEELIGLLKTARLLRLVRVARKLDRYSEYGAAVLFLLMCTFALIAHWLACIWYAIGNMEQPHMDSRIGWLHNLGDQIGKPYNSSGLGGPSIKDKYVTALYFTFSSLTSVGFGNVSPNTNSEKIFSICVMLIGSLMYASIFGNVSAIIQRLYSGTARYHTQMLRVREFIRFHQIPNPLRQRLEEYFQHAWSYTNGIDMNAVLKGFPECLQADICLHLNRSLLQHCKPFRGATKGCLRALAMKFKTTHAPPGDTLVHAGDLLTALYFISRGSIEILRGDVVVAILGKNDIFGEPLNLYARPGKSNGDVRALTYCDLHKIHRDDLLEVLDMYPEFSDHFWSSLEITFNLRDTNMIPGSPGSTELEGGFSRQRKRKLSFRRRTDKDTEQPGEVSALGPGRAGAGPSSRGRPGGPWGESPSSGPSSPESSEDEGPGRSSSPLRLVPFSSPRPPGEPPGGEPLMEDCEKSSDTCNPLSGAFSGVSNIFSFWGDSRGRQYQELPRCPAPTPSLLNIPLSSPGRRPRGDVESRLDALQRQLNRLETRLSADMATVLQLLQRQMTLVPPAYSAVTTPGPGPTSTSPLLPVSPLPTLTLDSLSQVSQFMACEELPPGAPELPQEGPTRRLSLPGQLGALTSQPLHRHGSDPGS

[6] = target: D(1A) dopamine receptor (Homo sapiens) (UniProt P21728); assay: Displacement of [3H]SCH-23390 from full-length recombinant human D1 receptor expressed in CHO cells at 10 uM measured after 120 mins by scintillation counting method relative to control; assay type: cell-based
Sequence of D(1A) dopamine receptor (Homo sapiens) (P21728 whole entry): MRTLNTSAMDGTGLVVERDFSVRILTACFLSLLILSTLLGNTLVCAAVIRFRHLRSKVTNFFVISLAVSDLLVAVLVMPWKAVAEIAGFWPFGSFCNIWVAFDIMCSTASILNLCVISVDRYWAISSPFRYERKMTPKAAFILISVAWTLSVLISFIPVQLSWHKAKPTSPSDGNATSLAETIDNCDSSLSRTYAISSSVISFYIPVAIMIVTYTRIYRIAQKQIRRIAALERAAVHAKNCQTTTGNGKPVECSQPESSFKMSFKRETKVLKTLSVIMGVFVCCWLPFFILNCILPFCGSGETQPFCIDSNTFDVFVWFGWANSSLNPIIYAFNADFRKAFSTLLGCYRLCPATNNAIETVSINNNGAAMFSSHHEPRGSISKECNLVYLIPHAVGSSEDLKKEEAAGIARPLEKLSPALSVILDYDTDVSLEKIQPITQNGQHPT

[7] = target: Alpha-1A adrenergic receptor (Rattus norvegicus) (UniProt P43140); assay: Displacement of [3H]prazosin from alpha1A receptor in Wistar rat submaxillary gland membranes at 10 uM measured after 60 mins by scintillation counting method relative to control; assay type: cell membranes
Sequence of Alpha-1A adrenergic receptor (Rattus norvegicus) (P43140 whole entry): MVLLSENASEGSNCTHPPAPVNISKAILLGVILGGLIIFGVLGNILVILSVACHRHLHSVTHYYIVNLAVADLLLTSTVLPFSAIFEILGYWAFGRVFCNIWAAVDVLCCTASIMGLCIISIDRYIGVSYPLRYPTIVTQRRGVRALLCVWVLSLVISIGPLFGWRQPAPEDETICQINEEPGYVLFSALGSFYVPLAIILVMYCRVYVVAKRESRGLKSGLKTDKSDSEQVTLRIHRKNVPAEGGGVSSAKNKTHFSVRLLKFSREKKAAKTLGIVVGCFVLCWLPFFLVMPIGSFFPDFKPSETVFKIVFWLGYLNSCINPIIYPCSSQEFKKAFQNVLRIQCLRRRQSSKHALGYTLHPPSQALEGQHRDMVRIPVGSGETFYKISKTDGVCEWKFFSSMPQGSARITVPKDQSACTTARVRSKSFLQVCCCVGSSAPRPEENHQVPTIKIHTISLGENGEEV

Homo sapiens = organism: Homo sapiens; assay: Effect on hippo signaling protein in human COLO320DM cells assessed as change in AMOTL2 expression at 0.033 to 1 uM measured after 48 hrs by RT-PCR analysis; assay type: cell-based

SMILES: O=c1[nH]c(N2CCC3(CC2)CN(CCO)c2cc(F)cc(F)c23)nc2c1CCCC2
- inhibition [1]: > 20%
- half-life [2]: 2.8 h
- Activity (RKO): Active
- inhibition at 1.5 h, 10 µM [3]: > 20%
- inhibition [4]: > 20%
- inhibition [5]: > 20%
- inhibition at 1 h, 10 µM (hERG (KCNH2)): > 20%
- inhibition [6]: > 20%
- inhibition [7]: > 20%
- Activity (Homo sapiens): inactive
